Values of other authors as cited in paper PMC8146789, “20-Hydroxyecdysone, from Plant Extracts to Clinical Use: Therapeutic Potential for the Treatment of Neuromuscular, Cardio-Metabolic and Respiratory Diseases” (Biomedicines, 2021).
Read-outs that look alike come from different tables or passages of the source.

Experiments:
[1] = system: myostatin gene expression in C2C12 cells; conditions: cited from earlier work
mice = conditions: ref Ogawa et al. [121], cited from earlier work
rats [2] = system: rats; parameters: method as in ref [121] = [121]; 121. Ogawa S. Nishimoto N. Matsuda H. Pharmacology of ecdysones un vertebrates Invertebrate Endocrinology and Hormonal Heterophylly Burdette W.J. Springer Berlin, Germany 1974 341 344; conditions: ref [121]; cited from earlier work
rats [3] = conditions: long-term feeding 0.2–2 g/kg/day, ref [121]; cited from earlier work
[4] = parameters: method as in PMID 5719028, PMID 30428419; conditions: ref [154],[155]; cited from earlier work
[5] = rat, in vivo, po; cited from earlier work
[6] = parameters: method as in PMID 3355591, PMID 2906596; conditions: mice, i.p., ref [123],[125], cited from earlier work
[7] = sheep, ingested; ref [132]; cited from earlier work
[8] = humans, ref [132], cited from earlier work
C2C12 myotubes = system: C2C12 myotubes; parameters: method as in PMID 24974955; conditions: E2 1 nM; ref [54]; cited from earlier work
ERα = system: ERα; parameters: method as in PMID 24974955; conditions: ref [54]; cited from earlier work
Erβ = system: Erβ; parameters: method as in PMID 24974955; conditions: ref [54]; cited from earlier work

For C[C@]12CC[C@@H]3c4ccc(O)cc4C(=NOCC(=O)O)C[C@H]3[C@@H]1CC[C@@H]2O [E2-CMO, estradiol 6-carboxymethyloxime], the myostatin gene expression ([1]; C2C12 cells, ref [113]) is listed as “inhibit myostatin gene expression in C2C12 cells like E2”.
In the case of C[C@]12CC[C@@H]3c4ccc(O)cc4CC[C@H]3[C@@H]1CC[C@H]2O [17αE2, 17-epi-estradiol], the myostatin gene expression ([1]; C2C12 cells, ref [113]) is listed as “inhibit myostatin gene expression in C2C12 cells”.
In the case of CC(CO)CC[C@@H](O)[C@](C)(O)[C@H]1CC[C@@]2(O)C3=CC(=O)[C@@H]4C[C@@H](O)[C@@H](O)C[C@]4(C)[C@H]3CC[C@]12C (stereo partly shown) [inokosterone], the LD50 (mice; i.p.-injected) is listed as 7800 mg/kg, the LD50 (mice; ingested) is listed as greater than 9000 mg/kg and the “sex hormonal activity, anti-inflammatory or anabolic effects” value (rats [2]) is listed as “did not have”. The subacute toxicity (rats [3]) was “no subacute toxicity was observed”.
In the case of “Angiotensin(1-7): natural ligand for the GPCR Mas1 (DRVYIHP; Angiotensin 1-7; UniProt P01019 25-31, looked up)”, the myostatin gene expression ([1]; C2C12 cells, ref [113]) is given as “partially inhibits myostatin gene expression”.
For D-Ala^7-Ang(1-7), the “effect on the inhibition of myostatin gene expression by 20E” value ([1]; C2C12 cells, ref [113]) is given as “effective at preventing the inhibition brought about by 20E” and the “effect on the inhibition of myostatin gene expression by Ang(1-7)” value ([1]; C2C12 cells, ref [113]) is given as “abolished”.
In the case of CC(=O)[C@H]1CC[C@@]2(O)C3=CC(=O)[C@@H]4C[C@@H](O)[C@@H](O)C[C@]4(C)C3CC[C@]12C (stereo partly shown) [Post, poststerone], the anabolic activity [4] is listed as “seem to retain some anabolic activity” and the bioavailability [5] is listed as “ca. 19%”.
For D-Pro^7-Ang(1-7), the “effect on the inhibition of myostatin gene expression by 20E” value ([1]; C2C12 cells, ref [113]) is listed as “effective at preventing the inhibition brought about by 20E” and the “effect on the inhibition of myostatin gene expression by Ang(1-7)” value ([1]; C2C12 cells, ref [113]) is listed as “abolished”.
In the case of C[C@H]([C@H](O)CCC(C)(C)O)[C@H]1CC[C@@]2(O)C3=CC(=O)[C@@H]4C[C@@H](O)[C@@H](O)C[C@]4(C)[C@H]3CC[C@]12C [E, ecdysone], the “time to full excretion of radioactivity” value ([6]; undiluted radiolabelled ecdysone) is given as no more than 24 h, the “time until essentially all radioactivity is located in the intestine” value [6] is given as 45 to 60 min and the “time of plasma titre maximum” value [7] is given as “ca. 30 min”. The “time of plasma titre maximum” value ([8]; ingested) was “ca. 30 min”, the “effective half-time of elimination from the blood” value [8] was 4 h and the “effective half-time of elimination from the urine” value [8] was 3.1 h.
For C[C@]12CC[C@@H]3c4ccc(O)cc4CC[C@H]3[C@@H]1CC[C@@H]2O [E2, Estradiol, reference compound], the myotube diameter (C2C12 myotubes) is listed as “enhanced myotube diameter”, the myostatin gene expression ([1]; C2C12 cells, ref [113]) is listed as “inhibit myostatin gene expression in a dose-dependent manner” and the “activation of ERE reporter gene” value (ERα) is listed as “could be activated dose dependently”. For the same compound, the “activation of ERE reporter gene” value (Erβ) was “could be activated dose dependently”.
In the case of IGF-1: insulin-like growth factor-1, the myostatin gene expression ([1]; C2C12 myotubes, 6 h treatment, ref [103]) is given as “markedly reduces myostatin gene expression”.
For C[C@]12C[C@H](O)[C@H](O)C[C@H]1C(=O)C=C1[C@@H]2CC[C@]2(C)C(=O)CC[C@@]12O [rubrosterone], the anabolic activity [4] is given as “seem to retain some anabolic activity”.
